PubChem BioAssay AID342 (DTP/NCI, 2004)
Several values for one entry are separate records, joined by “and”; a condition that tells them apart may be missing. Identical values can stand only once.

Tested on: Swiss mice, Sarcoma 180 sc, mean tumor weight T/C
Assay: NCI In Vivo Anticancer Drug Screen. Data for tumor model Sarcoma 180 (subcutaneous) in Swiss mice
Details: endpoint: mean tumor weight, higher = larger tumour
Protocol: The antitumor activity of compounds was measured in mice bearing transplantable tumors. Survival or tumor size were measured and the results are expressed as the measurement made in the treated group (T) divided by the measurement made in the vehicle treated control group (C). The tumor model used in this assay is Sarcoma 180 (subcutaneous) in Swiss mice

[1] = dose: 50.0 mg/kg/injection, schedule: Q01DX007 (ip), vehicle: carboxymethylcellulose (CMC)
[2] = dose: 125.0 mg/kg/injection, schedule: Q01DX007 (ip), vehicle: carboxymethylcellulose (CMC)
[3] = dose: 250.0 mg/kg/injection, schedule: Q01DX007 (ip), vehicle: carboxymethylcellulose (CMC)

Compound: O=C(O)CC[S-].[Ag+]
- T/C (dose: 187.5 mg/kg/injection, schedule: Q#A X014 (ip), vehicle: methylcellulose (MC)): 59 % of control and 68 % of control
- T/C (dose: 281.0 mg/kg/injection, schedule: Q#A X014 (ip), vehicle: methylcellulose (MC)): 69 % of control

Compound: CN(C)C1=C(Cl)C(=O)C(=O)c2cccnc21
- T/C (dose: 6.25 mg/kg/injection, schedule: Q01DX007 (ip), vehicle: water): 89 % of control
- T/C (dose: 12.5 mg/kg/injection, schedule: Q01DX007 (ip), vehicle: water): 81 % of control

Compound: CS(C)=O
- T/C (dose: 1000.0 mg/kg/injection, schedule: Q01DX007 (ip), vehicle: other): 71 % of control
- T/C (dose: 1000.0 mg/kg/injection, schedule: Q#A X014 (ip), vehicle: other): 91 % of control
- T/C (dose: 1500.0 mg/kg/injection, schedule: Q01DX007 (ip), vehicle: other): 84 % of control
- T/C (dose: 1500.0 mg/kg/injection, schedule: Q#A X014 (ip), vehicle: other): 99 % of control

Compound: CN(C)[C@@H]1C(=O)C(C(=O)NCNc2nc(=S)c3[nH]cnc3[nH]2)=C(O)[C@@]2(O)C(=O)C3=C(O)c4c(O)cccc4[C@@](C)(O)[C@H]3C[C@@H]12
- T/C (dose: 25.0 mg/kg/injection, schedule: Q01DX007 (ip), vehicle: carboxymethylcellulose (CMC)): 26 % of control
- T/C [1]: 15 % of control

Compound: CNNCc1ccc(C(=O)NC(N)=O)cc1
- T/C (dose: 100.0 mg/kg/injection, schedule: Q01DX007 (ip), vehicle: saline): 40 % of control
- T/C [2]: 38 % of control
- T/C (dose: 148.0 mg/kg/injection, schedule: Q01DX007 (ip), vehicle: saline): 42 % of control
- T/C (dose: 222.0 mg/kg/injection, schedule: Q01DX007 (ip), vehicle: saline): 18 % of control
- T/C [3]: 30 % of control
- T/C (dose: 333.0 mg/kg/injection, schedule: Q01DX007 (ip), vehicle: saline): 37 % of control

Compound: C(=N\N(c1ccccc1)c1ccccc1)/C(=C/c1ccccc1)c1ccccc1
- T/C [2]: 85 % of control
- T/C [3]: 92 % of control
- T/C (dose: 500.0 mg/kg/injection, schedule: Q01DX007 (ip), vehicle: carboxymethylcellulose (CMC)): 102 % of control

Compound: O=C(O)c1ccc(-c2ccccc2)cc1
- T/C [1]: 95 % of control
- T/C (dose: 100.0 mg/kg/injection, schedule: Q01DX007 (ip), vehicle: carboxymethylcellulose (CMC)): 118 % of control
- T/C (dose: 200.0 mg/kg/injection, schedule: Q01DX007 (ip), vehicle: carboxymethylcellulose (CMC)): 120 % of control

Compound: NC(Cc1cc(I)c(Oc2ccc(O)c(I)c2)c(I)c1)C(=O)O (stereo not given)
- T/C (dose: 0.1 micrograms/kg/injection, schedule: Q01DX007 (sc), vehicle: steriod suspending solution): 103 % of control
- T/C (dose: 1.0 micrograms/kg/injection, schedule: Q01DX007 (sc), vehicle: steriod suspending solution): 95 % of control
- T/C (dose: 10.0 micrograms/kg/injection, schedule: Q01DX007 (sc), vehicle: steriod suspending solution): 156 % of control

Compound: Nc1ncnc2c1ncn2C1OC(CO)CC1O (stereo not given)
- T/C (dose: 37.0 mg/kg/injection, schedule: Q01DX007 (ip), vehicle: carboxymethylcellulose (CMC)): 104 % of control
- T/C (dose: 75.0 mg/kg/injection, schedule: Q01DX007 (ip), vehicle: carboxymethylcellulose (CMC)): 122 % of control
- T/C (dose: 150.0 mg/kg/injection, schedule: Q01DX007 (ip), vehicle: carboxymethylcellulose (CMC)): 80 % of control
- T/C (dose: 300.0 mg/kg/injection, schedule: Q01DX007 (ip), vehicle: carboxymethylcellulose (CMC)): 53 % of control

Compound: CC/C(=C(/CC)c1ccc(O)cc1)c1ccc(O)cc1
- T/C (dose: 19.69 mg/kg/injection, schedule: Q01DX007 (sc), vehicle: steriod suspending solution): 54 % of control
- T/C (dose: 22.13 mg/kg/injection, schedule: Q01DX007 (sc), vehicle: steriod suspending solution): 51 % of control
- T/C (dose: 24.0 mg/kg/injection, schedule: Q01DX007 (sc), vehicle: steriod suspending solution): 51 % of control
- T/C (dose: 39.38 mg/kg/injection, schedule: Q01DX007 (sc), vehicle: steriod suspending solution): 42 % of control
- T/C (dose: 44.25 mg/kg/injection, schedule: Q01DX007 (sc), vehicle: steriod suspending solution): 60 % of control
- T/C (dose: 48.0 mg/kg/injection, schedule: Q01DX007 (sc), vehicle: steriod suspending solution): 37 % of control
- T/C (dose: 70.8 mg/kg/injection, schedule: Q01DX007 (sc), vehicle: steriod suspending solution): 80 % of control
- T/C (dose: 78.75 mg/kg/injection, schedule: Q01DX007 (sc), vehicle: steriod suspending solution): 65 % of control
- T/C (dose: 96.0 mg/kg/injection, schedule: Q01DX007 (sc), vehicle: steriod suspending solution): 30 % of control
- T/C (dose: 118.0 mg/kg/injection, schedule: Q01DX007 (sc), vehicle: steriod suspending solution): 72 % of control
- T/C (dose: 157.5 mg/kg/injection, schedule: Q01DX007 (sc), vehicle: steriod suspending solution): 52 % of control
- T/C (dose: 177.0 mg/kg/injection, schedule: Q01DX007 (sc), vehicle: steriod suspending solution): 57 % of control

Compound: O=C1NC(=O)C2(CCCc3ccc(N(CCCl)CCCl)cc32)N1 (stereo not given)
- T/C (dose: 16.0 mg/kg/injection, schedule: Q01DX007 (ip), vehicle: other): 70 % of control
- T/C (dose: 16.0 mg/kg/injection, schedule: Q01DX007 (ip), vehicle: saline): 67 % of control
- T/C (dose: 24.0 mg/kg/injection, schedule: Q01DX007 (ip), vehicle: other): 107 % of control
- T/C (dose: 24.0 mg/kg/injection, schedule: Q01DX007 (ip), vehicle: saline): 85 % of control
- T/C (dose: 36.0 mg/kg/injection, schedule: Q01DX007 (ip), vehicle: other): 61 % of control
- T/C (dose: 36.0 mg/kg/injection, schedule: Q01DX007 (ip), vehicle: saline): 75 % of control
- T/C (dose: 55.0 mg/kg/injection, schedule: Q01DX007 (ip), vehicle: saline): 52 % of control
- T/C (dose: 125.0 mg/kg/injection, schedule: Q01DX007 (ip), vehicle: saline): 29 % of control
- T/C (dose: 188.0 mg/kg/injection, schedule: Q01DX007 (ip), vehicle: other): 65 % of control
- T/C (dose: 282.0 mg/kg/injection, schedule: Q01DX007 (ip), vehicle: other): 80 % of control
- T/C (dose: 423.0 mg/kg/injection, schedule: Q01DX007 (ip), vehicle: other): 81 % of control

Compound: Cn1cc(NC(=O)c2cc(NC(=O)c3cc(NC=O)cn3C)cn2C)cc1C(=O)NCCC(=N)N
- T/C (dose: 20.0 mg/kg/injection, schedule: Q01DX007 (sc), vehicle: water): 80 % of control
- T/C (dose: 25.0 mg/kg/injection, schedule: Q01DX007 (sc), vehicle: water): 77 % of control
- T/C (dose: 40.0 mg/kg/injection, schedule: Q01DX007 (sc), vehicle: water): 92 % of control
- T/C (dose: 50.0 mg/kg/injection, schedule: Q01DX007 (sc), vehicle: water): 64 % of control
- T/C (dose: 75.0 mg/kg/injection, schedule: Q01DX007 (sc), vehicle: water): 71 % of control

Compound: Fc1ccc(NC(=S)Nc2cc(Cl)cc(Cl)c2)cc1
- T/C (dose: 15.0 mg/kg/injection, schedule: Q01DX007 (ip), vehicle: carboxymethylcellulose (CMC)): 115 % of control
- T/C (dose: 30.0 mg/kg/injection, schedule: Q01DX007 (ip), vehicle: carboxymethylcellulose (CMC)): 117 % of control

Compound: COc1ccc(C[C@H](N)C(=O)NC2C(CO)OC(n3cnc4c(N(C)C)ncnc43)C2O)cc1 (stereo not given in full)
- T/C (dose: 12.5 mg/kg/injection, schedule: Q#A X014 (ip), vehicle: carboxymethylcellulose (CMC)): 106 % of control
- T/C (dose: 13.12 mg/kg/injection, schedule: Q01DX007 (ip), vehicle: carboxymethylcellulose (CMC)): 65 % of control
- T/C (dose: 26.25 mg/kg/injection, schedule: Q01DX007 (ip), vehicle: carboxymethylcellulose (CMC)): 105 % of control
- T/C (dose: 52.5 mg/kg/injection, schedule: Q01DX007 (ip), vehicle: carboxymethylcellulose (CMC)): 66 % of control
- T/C (dose: 105.0 mg/kg/injection, schedule: Q01DX007 (ip), vehicle: carboxymethylcellulose (CMC)): 80 % of control

Compound: CC[C@](C)(O)C(=O)O[C@H]1C(=O)O[C@@H]2C[C@H]3C(C)=C[C@H](O)[C@@H](O)[C@]3(C)[C@H]3[C@@]4(O)OC[C@]32[C@@H]1[C@@H](C)[C@H]4O
- T/C (dose: 0.5 mg/kg/injection, schedule: Q01DX007 (sc), vehicle: olive oil, sesame oil, peanut oil): 60 % of control
- T/C (dose: 1.0 mg/kg/injection, schedule: Q01DX007 (sc), vehicle: olive oil, sesame oil, peanut oil): 64 % of control
- T/C (dose: 2.0 mg/kg/injection, schedule: Q01DX007 (sc), vehicle: olive oil, sesame oil, peanut oil): 67 % of control
- T/C (dose: 4.0 mg/kg/injection, schedule: Q01DX007 (sc), vehicle: olive oil, sesame oil, peanut oil): 77 % of control and 80 % of control
- T/C (dose: 6.0 mg/kg/injection, schedule: Q01DX007 (sc), vehicle: olive oil, sesame oil, peanut oil): 97 % of control
- T/C (dose: 9.0 mg/kg/injection, schedule: Q01DX007 (sc), vehicle: olive oil, sesame oil, peanut oil): 93 % of control

Compound: C[C@]12C=CC(=O)C=C1CC[C@@H]1[C@@H]2[C@@H](O)C[C@@]2(C)[C@H]1CC[C@]2(O)C(=O)COC(=O)C1CCCC1
- T/C (dose: 3.5 mg/kg/injection, schedule: Q#A X014 (sc), vehicle: water): 68 % of control
- T/C (dose: 5.0 mg/kg/injection, schedule: Q#A X014 (sc), vehicle: water): 35 % of control
- T/C (dose: 7.5 mg/kg/injection, schedule: Q#A X014 (sc), vehicle: water): 49 % of control
- T/C (dose: 11.5 mg/kg/injection, schedule: Q#A X014 (sc), vehicle: water): 47 % of control
- T/C (dose: 17.5 mg/kg/injection, schedule: Q#A X014 (sc), vehicle: water): 32 % of control
